{
  "source": "patent US6414021B1",
  "about": "“Control of intraocular pressure during surgery” (Sucampo AG, priority 2000, dated 2002)",
  "key": {"[1]": {"system": "intraocular pressure in monkeys", "experiment": "Effects on intraocular pressure by intra-anterior chamber perfusion with a lower dosage in monkeys (Example 2, 2 ng/mL)", "type": "in vivo, cynomologus monkeys", "settings": "for IOP: perfusion 40 μL/min for 1 hour; for IOP / Difference in IOP between both treatments (IOP in 15-keto acid of latanoprost treatment minus IOP in vehicle treatment) / ΔIOP: Changes of IOP from pre-treatment value: mean ± S.E. of 7 animals", "experimental": "The effects on intraocular pressure by intra-anterior chamber perfusion with a lower dosage of 13,14-dihydro-15-keto-17-phenyl-18,19,20-trinor-PGF2 α (15-keto acid of latanoprost) were investigated in monkeys. One hour perfusion in the anterior chamber with 15-keto acid of latanoprost at the concentration (2 ng/mL) was carried out.\nThe solution containing 15-keto acid of latanoprost at 2 ng/mL was prepared with a commercially available intraocular perfusate (Opeguard MA, Senju Pharmaceutical Co. Ltd.) as a vehicle.\nSeven male cynomologus monkeys (Body weight: 3.9-6.0 kg) purchased from Kasyo Co., Ltd. were used. These monkeys were housed individually in cages in a room which was maintained at room temperature of 24±1° C., relative humidity of 55±10%, ventilation rate of about 12 times/hour and 12-hour light-dark cycle (fluorescent lighting: 8:00 to 20:00). The animals were given food pellets for monkeys (PS, Oriental Yeast Co., Ltd.), vegetables and fruits once a day, and allowed free access to tap water from an automatic dispenser. The healthy animals without abnormalities in the anterior segment of the eye were used in this study.\nThe animals were anesthetized by an intramuscular injection of 5.0-7.5 mg/kg of katamine hydrochloride (Ketalar 50, Sankyo Co., Ltd.), and restrained in a supine position. Two 30 G injection needles (one for infusion of the dosing solution and the other for discharge, Becton Dickinson and Co.) connected to polyethylene cannula (PE10, Becton Dickinson and Co.) were inserted into the anterior chamber from the temporal corneal ring of the eye ball. The anterior chamber was perfused with the 15-keto acid of latanoprost solution or the vehicle at a rate of 40 μL/min through the cannula for 1 hour using a syringe pump (Model 100, KD Scientific Inc.). During the perfusion, the anesthesia was maintained by intramuscular injection of 5.0 mg/kg ketamine hydrochloride every 20 minutes.\nThe animals were systemically anesthetized by an intramuscular injection of 5.0-7.5 mg/kg of ketamine hydrochloride (Ketalar 50, Sankyo Co., Ltd.), and the ocular surface was anesthetized by a instillation of 0.4% oxybuprocaine hydrochloride (Benoxil 0.4% solution, Santen Pharmaceutical Co., Ltd.). The animals were fixed in a supine position, and the intraocular pressure was measured by use of a pneumatonometer (Model 30 Classic, Mentor O & O.) before, and 3 and 5 hours after starting the perfusion (2 and 4 hours after stopping the perfusion, respectively).\nThe animals were used two times. The same eye of each animal was used for both treatments in a crossover way with a recovery period for at least 12 days.\nThe data were statistically analyzed with Student's t-test or paired t-test. P values less than 0.05 were considered to be statistically significant."}, "[2]": {"system": "intraocular pressure in monkeys", "experiment": "Intraocular pressure lowering effect by perfusion in the anterior chamber in monkeys (Example 1, 59 ng/mL)", "type": "in vivo, cynomolgus monkeys", "settings": "for IOP decrease as compared with changes in IOP of the control after vehicle perfusion: 59 ng/mL, anterior chamber perfusion 50 μL/min for 1 hour, n=2", "experimental": "The intraocular pressure lowering effect of 15-keto acid of latanoprost (13,14-dihydro-15-keto-17-phenyl-18,19,20-trinor-PGF2α) by perfusion in the anterior chamber in monkeys was investigated.\nMale cynomolgus monkeys (body weight: 4.5-6.5 kg) were used. These monkeys were housed individually in cages for monkeys in a room which was maintained at room temperature of 24±1° C., relative humidity of 55±10%, ventilation of about 12 times/hour and a 12-hour light-dark cycle (fluorescent lighting: 8:00 a.m. to 8:00 p.m). The animals were given solid food for monkeys (PS, Oriental Yeast Co., Ltd.), vegetables and fruits, and allowed free access to tap water from an automatic dispenser. The healthy animals without abnormalities in the anterior segment of the eye were used in this study.\nIn the present study the solution containing 59 ng/mL of 15-keto acid of latanoprost was adjusted with commercially available intraocular perfusate (Opeguard-MA, Lot P-464, Senju Pharmaceutical Co., Ltd.). The control solution (vehicle) was the intraocular perfusate.\nThe animals were anesthetized by the injection intramuscularly with 5.0-7.5 mg/kg of ketamine hydrochloride (Ketalar®50, Sankyo Co., Ltd.), and restrained in a supine position. In operation and perfusion of the dosing solution in the anterior chamber, the anesthesia was maintained by intramuscular injection of 5 mg/kg of ketamine at interval of 30 minutes. […]\nAfter the ocular surface of monkeys was anesthetized by instillation of 0.4% oxybuprocaine hydrochloride (Benoxil® 0.4% solution, Santen Pharmaceutical Co., Ltd.) under i.m. systemic anesthesia with 5 mg/kg of ketamine hydrochloride, IOP was measured with an applanation pneumatonograph (Alcon Japan Ltd.). IOP was measured before perfusion of the test substance and 2 and 4 hours after perfusion (3 and 5 hours, respectively, after the start of the perfusion of the test substance). The mean value of the IOP measured twice at 30-minute interval before perfusion was used as IOP before perfusion of the test substance. […]"}, "[3]": {"settings": "2 ng/mL, 3 hours after starting perfusion"}, "[4]": {"settings": "2 ng/mL, 5 hours after starting perfusion"}},
  "data": [
    {"smiles": "O=C(O)CCC/C=C\\C[C@@H]1[C@@H](CCC(=O)CCc2ccccc2)[C@H](O)C[C@@H]1O", "note": "[15-keto acid of latanoprost, 13,14-dihydro-15-keto-17-phenyl-18,19,20-trinor-PGF2α]", "values": [
      {"measurement": "effect on intraocular pressure (in words)", "setting": "[1]; 2 ng/mL solution, intra-anterior chamber perfusion", "result": "significant reduction in the intraocular pressure"},
      {"measurement": "IOP", "setting": "[1]; [3]", "result": "23.1 ± 1.3", "unit": "mmHg"},
      {"measurement": "IOP", "setting": "[1]; [4]", "result": "24.4 ± 0.7", "unit": "mmHg"},
      {"measurement": "IOP", "setting": "[1]; 2 ng/mL, before perfusion", "result": "24.1 ± 0.8", "unit": "mmHg"},
      {"measurement": "Difference in IOP between both treatments (IOP in 15-keto acid of latanoprost treatment minus IOP in vehicle treatment)", "setting": "[1]; [3]", "result": "−2.9 ± 1.1", "unit": "mmHg"},
      {"measurement": "ΔIOP: Changes of IOP from pre-treatment value", "setting": "[1]; [3]", "result": "−1.0 ± 0.7", "unit": "mmHg"},
      {"measurement": "lowering of intraocular pressure as compared with the pre-treatment value", "setting": "[1]; 2 ng/mL, 3 hours after starting the perfusion", "result": 1.0, "unit": "mmHg"},
      {"measurement": "Difference in IOP between both treatments (IOP in 15-keto acid of latanoprost treatment minus IOP in vehicle treatment)", "setting": "[1]; [4]", "result": "0.0 ± 1.0", "unit": "mmHg"},
      {"measurement": "ΔIOP: Changes of IOP from pre-treatment value", "setting": "[1]; [4]", "result": "0.3 ± 0.7", "unit": "mmHg"},
      {"measurement": "Difference in IOP between both treatments (IOP in 15-keto acid of latanoprost treatment minus IOP in vehicle treatment)", "setting": "[1]; 2 ng/mL, before perfusion", "result": "0.7 ± 1.1", "unit": "mmHg"},
      {"measurement": "IOP decrease as compared with changes in IOP of the control after vehicle perfusion", "setting": "[2]; 3 hours after the start of perfusion", "result": 2.8, "unit": "mmHg"},
      {"measurement": "IOP decrease as compared with changes in IOP of the control after vehicle perfusion", "setting": "[2]; 5 hours after the start of perfusion", "result": 2.3, "unit": "mmHg"},
      {"measurement": "effect on intraocular pressure (in words)", "setting": "[2]; perfusion in the anterior chamber, monkeys", "result": "intraocular pressure was lowered"}
    ]}
  ]
}
